Laboratory results taken from patent publication US6004950A, “2-aminopyridines as inhibitors of cyclooxygenase-2” (Merck Frosst Canada, Inc., priority 1998, dated 1999).
Like-named read-outs stand apart in the source and are kept apart here.

Tests used:
COX-2 [1] = biological target: T1, COX-2 (Homo sapiens, UniProt P35354); assay: Whole cell assay for COX-2 using CHO transfected cell line CHO[hCOX-2], inhibition of PGE2 synthesis; type: cell-based
T1 construct: incubation of human whole blood with LPS, which induces COX-2; endogenous in cells; host or cells: heparinized fresh whole blood of human volunteers, incubated with LPS for 24 h
T1 sequence (P35354 18-604): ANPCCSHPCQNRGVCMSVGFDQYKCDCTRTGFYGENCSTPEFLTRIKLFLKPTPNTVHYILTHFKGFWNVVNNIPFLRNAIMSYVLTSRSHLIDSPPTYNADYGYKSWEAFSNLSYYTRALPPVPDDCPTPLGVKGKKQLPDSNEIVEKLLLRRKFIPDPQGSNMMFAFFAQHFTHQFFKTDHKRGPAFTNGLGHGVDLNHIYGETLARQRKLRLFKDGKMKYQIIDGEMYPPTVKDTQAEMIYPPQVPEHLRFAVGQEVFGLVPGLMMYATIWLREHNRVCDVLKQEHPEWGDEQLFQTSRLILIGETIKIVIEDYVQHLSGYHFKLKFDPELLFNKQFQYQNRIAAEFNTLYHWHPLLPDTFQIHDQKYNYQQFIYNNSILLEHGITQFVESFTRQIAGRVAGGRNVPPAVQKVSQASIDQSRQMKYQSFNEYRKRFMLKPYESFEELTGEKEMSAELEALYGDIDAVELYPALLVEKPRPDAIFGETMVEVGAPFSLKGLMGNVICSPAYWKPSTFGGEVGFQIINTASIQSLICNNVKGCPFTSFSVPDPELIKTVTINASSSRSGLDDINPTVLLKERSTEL

COX-2 [2] = biological target: T1, COX-2; assay: Human whole blood assay, COX-2 (LPS-induced PGE2 production); type: cell-based
Text: As well, platelets in whole blood contain a large amount of the COX-1 enzyme. Immediately following blood clotting, platelets are activated through a thrombin-mediated mechanism. This reaction results in the production of thromboxane B2 (TxB2) via activation of COX-1. Thus, the effect of test compounds on TxB2 levels following blood clotting can be examined and used as an index for COX-1 activity. Therefore, the degree of selectivity by the test compound can be determined by measuring the levels of PGE2 after LPS induction (COX-2) and TxB2 following blood clotting (COX-1) in the same assay.
A. COX-2 (LPS-induced PGE2 production)
Fresh blood is collected in heparinized tubes by venipuncture from both male and female volunteers. The subjects have no apparent inflammatory conditions and have not taken any NSAIDs for at least 7 days prior to blood collection. Plasma is immediately obtained from a 2 mL blood aliquot to use as blank (basal levels of PGE2).

COX-1 = COX-1 (Homo sapiens, UniProt P23219); assay: Assay of COX-1 activity from U937 cell microsomes; type: biochemical; parameters: Assay of COX-1 Activity from U937 cell microsomes; endogenous in cells; host or cells: U937 cells, 100,000×g microsomal pellet
Chain of COX-1 (P23219 24-599): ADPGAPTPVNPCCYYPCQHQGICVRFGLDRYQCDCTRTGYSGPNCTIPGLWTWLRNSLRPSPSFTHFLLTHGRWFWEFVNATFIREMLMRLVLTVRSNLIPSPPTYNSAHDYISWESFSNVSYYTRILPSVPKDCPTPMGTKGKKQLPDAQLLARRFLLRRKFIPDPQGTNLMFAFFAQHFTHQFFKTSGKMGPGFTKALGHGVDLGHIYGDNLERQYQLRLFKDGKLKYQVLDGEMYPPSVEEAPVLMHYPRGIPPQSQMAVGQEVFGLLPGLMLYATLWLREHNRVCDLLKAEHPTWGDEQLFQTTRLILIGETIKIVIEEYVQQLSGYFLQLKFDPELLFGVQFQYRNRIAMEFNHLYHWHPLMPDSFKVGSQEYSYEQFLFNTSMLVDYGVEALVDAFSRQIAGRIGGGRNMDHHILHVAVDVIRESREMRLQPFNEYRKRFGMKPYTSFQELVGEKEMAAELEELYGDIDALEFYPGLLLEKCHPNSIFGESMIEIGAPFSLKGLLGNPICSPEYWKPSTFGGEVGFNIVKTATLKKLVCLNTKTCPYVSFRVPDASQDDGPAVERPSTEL
Protocol: Assay of COX-1 Activity from U937 cell microsomes
U 937 cells are pelleted by centrifugation at 500×g for 5 min and washed once with phosphate-buffered saline and repelleted. Cells are resuspended in homogenization buffer consisting of 0.1 M Tris-HCl, pH 7.4, 10 mM EDTA, 2 μg/ml leupeptin, 2 μg/ml soybean trypsin inhibitor, 2 μg/ml aprotinin and 1 mM phenyl methyl sulfonyl fluoride. The cell suspension is sonicated 4 times for 10 sec and is centrifuged at 10,000×g for 10 min at 4° C. The supernatant is centrifuged at 100,000×g for 1 hr at 4° C. The 100,000×g microsomal pellet is resuspended in 0.1 M Tris-HCl, pH 7.4, 10 mM EDTA to approximately 7 mg protein/ml and stored at -80° C.
Microsomal preparations are thawed immediately prior to use, subjected to a brief sonication, and then diluted to a protein concentration of 125 μg/ml in 0.1 M Tris-HCl buffer, pH 7.4 containing 10 mM EDTA, 0.5 mM phenol, 1 mM reduced glutathione and 1 μM hematin. Assays are performed in duplicate in a final volume of 250 μl. Initially, 5 μl of DMSO vehicle or drug in DMSO are added to 20 μl of 0.1 M Tris-HCl buffer, pH 7.4 containing 10 mM EDTA in wells of a 96-deepwell polypropylene titre plate. 200 μl of the microsomal preparation are then added and pre-incubated for 15 min at room temperature before addition of 25 μl of […] arachidonic acid in […] Tris-HCl and 10 mM EDTA, pH 7.4. Samples are incubated for 40 min at room temperature and the reaction is stopped by the addition of 25 μl of 1 N HCl. Samples are neutralized with 25 μl of 1 N NaOH prior to quantitation of PGE2 content by radioimmunoassay (Dupont-NEN or Amersham assay kits). Cyclooxygenase activity is defined as the difference between PGE2 levels in samples incubated in the presence of arachidonic acid and ethanol vehicle.
In the assay, inhibition is determined by measuring the amount of prostaglandin E2 (PGE2) synthesized in the presence of arachidonic acid, cyclooxygenase-1 or cyclooxygenase-2 and a putative inhibitor.

[3] = U937 cell microsomes, PGE2, read-out: COX-1 (IC50 mM) U-937
[4] = CHO[hCOX-2] cells, 10 μM AA, PGE2, read-out: COX-2 (IC50 mM) CHO
[5] = human whole blood, LPS-induced PGE2, 24 h, read-out: COX-2 (IC50 mM) HWB

Row | IC50 (COX-2 [1]) [nM] | IC50 (COX-2 [2]) [mM] | SMILES | IC50 (COX-1; [3]) [mM] | IC50 (COX-1) [mM] | IC50 (COX-2 [1]; [4]) [nM] | IC50 (COX-2 [2]; [5]) [mM]
1 | 30 | 0.0005 | CS(=O)(=O)c1ccc(-c2cc(C(F)(F)F)cnc2N2CCC[C@H](CO)C2)cc1 (single isomer, unassigned) [Example 14, (-)-3-(4-Methylsulfonyl)phenyl-2-(3-hydroxymethyl)piperidin-1-yl-5-trifluoromethylpyridine] | 0.003 to 0.01 |  |  | 
2 | 30 | 0.0266 | CS(=O)(=O)c1ccc(-c2cc(C(F)(F)F)cnc2N2CCC[C@@H](CO)C2)cc1 (single isomer, unassigned) [Example 15, (+)-3-(4-Methylsulfonyl)phenyl-2-(3-hydroxymethyl)piperidin-1-yl-5-trifluoromethylpyridine] | > 0.01 |  |  | 
3 |  |  | CS(=O)(=O)c1ccc(-c2cc(Cl)cnc2N2CCCCC2)cc1 [Example 3, 5-Chloro-3-(4-methylsulfonyl)phenyl-2-piperidin-1-ylpyridine] | 0.001 to 0.003 |  |  | 
4 |  |  | CS(=O)(=O)c1ccc(-c2cccnc2N2CCCCC2)cc1 [Example 4, 3-(4-Methylsulfonyl)phenyl-2-piperidin-1-ylpyridine] | > 0.05 |  | 130 | 0.006
5 |  |  | CS(=O)(=O)c1ccc(-c2cc(C(F)(F)F)cnc2N2CC=CCC2)cc1 [Example 5, 3-(4-Methylsulfonyl)phenyl-2-(1,2,3,6-tetrahydropyridinyl)-5-trifluoromethylpyridine] | 0.001 to 0.003 |  | 2 | 0.001
6 |  |  | CS(=O)(=O)c1ccc(-c2cc(C(F)(F)F)cnc2N2CCCCCC2)cc1 [Example 6, 2-(Homopiperidin-1-yl)-3-(4-methylsulfonyl)phenyl-5-trifluoromethylpyridine] | 0.01 |  | 4 | 0.006
7 |  |  | CS(=O)(=O)c1ccc(-c2cc(C(F)(F)F)cnc2N2CCC[C@H]2CO)cc1 [Example 7, 3-(4-Methylsulfonyl)phenyl-2-((2S)-2-hydroxymethyl)pyrrolidin-1-yl-5-trifluoromethylpyridine] | 0.003 to 0.01 |  | 40 | 0.0002
8 |  |  | CS(=O)(=O)c1ccc(-c2cc(C(F)(F)F)cnc2N2CCC[C@@H]2CO)cc1 [Example 8, 3-(4-Methylsulfonyl)phenyl-2-((2R)-2-hydroxymethyl)pyrrolidin-1-yl-5-trifluoromethylpyridine] | > 0.01 |  | > 5000 | > 0.033
9 |  |  | CS(=O)(=O)c1ccc(-c2cc(Cl)cnc2N2CCC[C@H]2CO)cc1 [Example 9, 5-Chloro-3-(4-methylsulfonyl)phenyl-2-((2S)-2-hydroxymethyl)pyrrolidin-1-ylpyridine] | 0.001 to 0.003 |  | 30 | 0.0001
10 |  |  | COC[C@@H]1CCCN1c1ncc(C(F)(F)F)cc1-c1ccc(S(C)(=O)=O)cc1 [Example 10, 3-(4-Methylsulfonyl)phenyl-2-((2S)-2-methoxymethyl)pyrrolidin-1-yl-5-trifluoromethylpyridine] | 0.003 to 0.01 |  | 90 | 0.0031
11 |  |  | CC(=O)OC[C@@H]1CCCN1c1ncc(C(F)(F)F)cc1-c1ccc(S(C)(=O)=O)cc1 [Example 11, 3-(4-Methylsulfonyl)phenyl-2-((2S)-2-acetoxymethyl)pyrrolidin-1-yl-5-trifluoromethylpyridine] | > 0.01 |  | 70 | < 0.0004
12 |  |  | COC[C@@H]1CCCN1c1ncc(Cl)cc1-c1ccc(S(C)(=O)=O)cc1 [Example 12, 5-Chloro-3-(4-methylsulfonyl)phenyl-2-((2S)-2-methoxymethyl)pyrrolidin-1-ylpyridine] | 0.003 to 0.01 |  |  | 
13 |  |  | CS(=O)(=O)c1ccc(-c2cc(Cl)cnc2N2CCCC(CO)C2)cc1 (stereo not drawn) [Example 16, 5-Chloro-3-(4-methylsulfonyl)phenyl-2-(3-hydroxymethyl)piperidin-1-ylpyridine] | > 0.01 |  |  | 

Row | SMILES | IC50 (COX-2 [1]) [nM] | IC50 (COX-2 [2]) [mM] | IC50 (COX-1; [3]) [mM] | IC50 (COX-1) [mM] | IC50 (COX-2 [1]; [4]) [nM] | IC50 (COX-2 [2]; [5]) [mM]
14 | CS(=O)(=O)c1ccc(-c2cc(C(F)(F)F)cnc2N2CCCC2)cc1 [Example 1, 3-(4-Methylsulfonyl)phenyl-2-pyrrolidin-1-yl-5-trifluoromethylpyridine] | 20 | 0.0097 |  | > 0.01 |  | 
